Test results as given in US12643871B2, “Aryl formamide compound containing chiral sulfur oxide or salt thereof, preparation method, herbicidal composition and use thereof” (Qingdao Kingagroot Chemical Compound Co., Ltd., priority 2019, dated 2026).

How the values were obtained:
Test in all cases: Weeding effect in post-emergence stage
Type in all cases: in vivo
Conditions in all cases: 250 g/ha; 2 leaf stage; 15 days after application; fresh weight control rate
Digitaria sanguinalis = test system: Digitaria sanguinalis
Procedure, shortened: (§1)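 Post-emergence spray, 2-leaf stage; doses 500–15 g/ha; acetone + Tween 80 + methyl oleate EC (1.5 L/ha) as synergist. Greenhouse 15 d. Readout: fresh weight control rate graded levels 0–5 (5 = above 85%, 0 = below 5%); triplicate means.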

Setaria viridis = test system: Setaria viridis
Procedure, shortened: as §1

Amaranthus retroflexus = test system: Amaranthus retroflexus
Procedure, shortened: as §1

Echinochloa crusgali = test system: Echinochloa crusgali
Procedure, shortened: as §1

Abutilon theophrasti = test system: Abutilon theophrasti
Procedure, shortened: as §1

SMILES | weeding effect in post-emergence stage, activity level (growth control rate), Digitaria sanguinalis (Digitaria sanguinalis) | weeding effect in post-emergence stage, activity level (growth control rate), Setaria viridis (Setaria viridis) | weeding effect in post-emergence stage, activity level (growth control rate), Amaranthus retroflexus (Amaranthus retroflexus) | weeding effect in post-emergence stage, activity level (growth control rate), Echinochloa crusgali (Echinochloa crusgali) | weeding effect in post-emergence stage, activity level (growth control rate), Abutilon theophrasti (Abutilon theophrasti)
Cc1nnc(NC(=O)c2ccc(C(F)(F)F)c([S@+]([O-])CCC(F)(C(F)(F)F)C(F)(F)F)c2F)o1 [Compound 36] | 5 (Level 5: growth control rate is above 85%) | 5 (Level 5: growth control rate is above 85%) | 5 (Level 5: growth control rate is above 85%) | 5 (Level 5: growth control rate is above 85%) | 5 (Level 5: growth control rate is above 85%)
COc1c(C(=O)Nc2nnc(C)o2)ccc(C(F)(F)F)c1[S@+]([O-])CCC(C)(C)C [Compound 309] | 5 (Level 5: growth control rate is above 85%) | 5 (Level 5: growth control rate is above 85%) | 5 (Level 5: growth control rate is above 85%) | 5 (Level 5: growth control rate is above 85%) | 5 (Level 5: growth control rate is above 85%)
CCOC[S+]([O-])c1c(C(F)(F)F)ccc(C(=O)Nc2nnc(C)o2)c1F (stereo not shown) [Compound 70] | 5 (Level 5: growth control rate is above 85%) | 5 (Level 5: growth control rate is above 85%) | 5 (Level 5: growth control rate is above 85%) | 5 (Level 5: growth control rate is above 85%) | 5 (Level 5: growth control rate is above 85%)
COc1c(C(=O)Nc2nnc(C)o2)ccc(C(F)(F)F)c1[S@+]([O-])CC#N [Compound 337] | 5 (Level 5: growth control rate is above 85%) | 5 (Level 5: growth control rate is above 85%) | 5 (Level 5: growth control rate is above 85%) | 5 (Level 5: growth control rate is above 85%) | 5 (Level 5: growth control rate is above 85%)
CCC[S@@+]([O-])c1c(C(F)(F)F)ccc(C(=O)Nc2nnc(C)o2)c1Br [Compound 544] | 5 (Level 5: growth control rate is above 85%) | – | 5 (Level 5: growth control rate is above 85%) | 5 (Level 5: growth control rate is above 85%) | 5 (Level 5: growth control rate is above 85%)
CCC[S@@+]([O-])c1c(C(F)(F)F)ccc(C(=O)Nc2nnc(C)o2)c1SCOC [Compound 573] | 5 (Level 5: growth control rate is above 85%) | – | 5 (Level 5: growth control rate is above 85%) | 5 (Level 5: growth control rate is above 85%) | 5 (Level 5: growth control rate is above 85%)
Cc1c(C(=O)Nc2nnnn2C)ccc(S(C)(=O)=O)c1[S@+]([O-])CCCl [Compound 525] | 5 (Level 5: growth control rate is above 85%) | – | 5 (Level 5: growth control rate is above 85%) | 5 (Level 5: growth control rate is above 85%) | 5 (Level 5: growth control rate is above 85%)
Cc1c(C(=O)Nc2nnnn2C)ccc(S(C)(=O)=O)c1[S@+]([O-])CC#N [Compound 527] | 5 (Level 5: growth control rate is above 85%) | – | 5 (Level 5: growth control rate is above 85%) | 5 (Level 5: growth control rate is above 85%) | 5 (Level 5: growth control rate is above 85%)
Cc1c(C(=O)Nc2nnnn2C)ccc(S(C)(=O)=O)c1[S@+]([O-])CC(C)F (stereo partly shown) [Compound 521] | 5 (Level 5: growth control rate is above 85%) | – | 5 (Level 5: growth control rate is above 85%) | 5 (Level 5: growth control rate is above 85%) | 5 (Level 5: growth control rate is above 85%)
CCC[S@@+]([O-])c1c(C(F)(F)F)ccc(C(=O)Nc2nnc(C)o2)c1OCOC [Compound 536] | 5 (Level 5: growth control rate is above 85%) | – | 5 (Level 5: growth control rate is above 85%) | 5 (Level 5: growth control rate is above 85%) | 5 (Level 5: growth control rate is above 85%)
Cc1c(C(=O)Nc2nnnn2C)ccc(S(C)(=O)=O)c1[S@+]([O-])CCCCl [Compound 526] | 5 (Level 5: growth control rate is above 85%) | – | 5 (Level 5: growth control rate is above 85%) | 5 (Level 5: growth control rate is above 85%) | 5 (Level 5: growth control rate is above 85%)
CCC[S@@+]([O-])c1c(C(F)(F)F)ccc(C(=O)Nc2nnc(C)o2)c1CC [Compound 538] | 5 (Level 5: growth control rate is above 85%) | – | 5 (Level 5: growth control rate is above 85%) | 5 (Level 5: growth control rate is above 85%) | 5 (Level 5: growth control rate is above 85%)
CCC[S@@+]([O-])c1c(C(F)(F)F)ccc(C(=O)Nc2nnc(C)o2)c1C [Compound 537] | 5 (Level 5: growth control rate is above 85%) | – | 5 (Level 5: growth control rate is above 85%) | 5 (Level 5: growth control rate is above 85%) | 5 (Level 5: growth control rate is above 85%)
CCC[S@@+]([O-])c1c(C(F)(F)F)ccc(C(=O)Nc2nnc(C)o2)c1C#N [Compound 546] | 5 (Level 5: growth control rate is above 85%) | – | 5 (Level 5: growth control rate is above 85%) | 5 (Level 5: growth control rate is above 85%) | 5 (Level 5: growth control rate is above 85%)
Cc1c(C(=O)Nc2nnnn2C)ccc(S(C)(=O)=O)c1[S@+]([O-])CC1CC1 [Compound 518] | 5 (Level 5: growth control rate is above 85%) | – | 5 (Level 5: growth control rate is above 85%) | 5 (Level 5: growth control rate is above 85%) | 5 (Level 5: growth control rate is above 85%)
Cc1c(C(=O)Nc2nnnn2C)ccc(S(C)(=O)=O)c1[S@+]([O-])CCCF [Compound 523] | 5 (Level 5: growth control rate is above 85%) | – | 5 (Level 5: growth control rate is above 85%) | 5 (Level 5: growth control rate is above 85%) | 5 (Level 5: growth control rate is above 85%)
COCC[S@@+]([O-])c1c(S(C)(=O)=O)ccc(C(=O)Nc2nnnn2C)c1C [Compound 528] | 5 (Level 5: growth control rate is above 85%) | – | 5 (Level 5: growth control rate is above 85%) | 5 (Level 5: growth control rate is above 85%) | 5 (Level 5: growth control rate is above 85%)
Cc1c(C(=O)Nc2nnnn2C)ccc(S(C)(=O)=O)c1[S@+]([O-])CCC(F)(F)F [Compound 524] | 5 (Level 5: growth control rate is above 85%) | – | 5 (Level 5: growth control rate is above 85%) | 5 (Level 5: growth control rate is above 85%) | 5 (Level 5: growth control rate is above 85%)
